“And” between values parts separate entries of the source, which are not always exact repeats. Identical values can stand only once.
Assays:
[1] = Partition coefficient, log P of the compound; settings: octanol/water
[2] = Permeability coefficient through artificial membrane in presence of unstirred water layer by PAMPA
[3] = Intrinsic artificial membrane permeability coefficient, log P0 of the compound; assay type: ADME
[4] = Permeability coefficient through artificial membrane in presence of stirred water layer
Caco-2 [5] = test: Permeability from basolateral to apical side of the Caco-2 cell membrane; assay type: ADME, cell-based; settings: human
Caco-2 [6] = test: Permeability from apical to basolateral side of the Caco-2 cell membrane; assay type: ADME, cell-based; settings: human
[7] = Permeability coefficient through artificial membrane in presence of stirred water layer at 100 rpm stirring speed; assay type: ADME
[8] = Permeability coefficient through artificial membrane in presence of stirred water layer at 200 rpm stirring speed; assay type: ADME
[9] = Permeability coefficient through artificial membrane in presence of stirred water layer at 250 rpm stirring speed; assay type: ADME

## C=CCc1ccccc1OCC(O)CNC(C)C (configuration not stated) [ALPRENOLOL]
[1]
  logP: 2.65
[2]
  LogP app: -4.7
  Papp: 11.5 ×10⁻⁶ cm/s
[3]
  logPm: -1.02
[4]; PAMPA
  Papp: 61.4 ×10⁻⁶ cm/s
[4]; artificial membrane
  LogP app: -4.21

## COc1ccc([C@@H]2Sc3ccccc3N(CCN(C)C)C(=O)[C@@H]2OC(C)=O)cc1 [DILTIAZEM]
[1]
  logP: 2.8
[2]
  LogP app: -4.64
  Papp: 0.34 ×10⁻⁶ cm/s
[3]
  logPm: -1.85

## CCOP(=S)(OCC)Oc1cc(C)nc(C(C)C)n1 [DIMPYLATE]
Caco-2 [5]
  LogP app: -4.42
Caco-2 [6]
  LogP app: -4.32
[1]
  logP: 3.3
[2]
  LogP app: -5.28
  Papp: 5.21 ×10⁻⁶ cm/s
[4]; PAMPA
  Papp: 31.1 ×10⁻⁶ cm/s
[4]; artificial membrane
  LogP app: -4.51

## c1ccc(Nc2ccccc2)cc1 [DIPHENYLAMINE]
Caco-2 [5]
  LogP app: -4.35
Caco-2 [6]
  LogP app: -4.4
[2]
  LogP app: -5.51
  Papp: 3.1 ×10⁻⁶ cm/s
[4]; PAMPA
  Papp: 15 ×10⁻⁶ cm/s
[4]; artificial membrane
  LogP app: -4.82

## CC(C)Cc1ccc(C(C)C(=O)O)cc1 (configuration not stated) [IBUPROFEN]
[2]
  LogP app: -4.67 and -4.72
[3]
  logPm: -1.15

## CC(C)OP(=O)(OC(C)C)SCc1ccccc1 [IPROBENFOS]
Caco-2 [5]
  LogP app: -4.35
Caco-2 [6]
  LogP app: -4.28
[1]
  logP: 3.21
[2]
  LogP app: -4.93
  Papp: 11.7 ×10⁻⁶ cm/s
[4]; PAMPA
  Papp: 362 ×10⁻⁶ cm/s
[4]; artificial membrane
  LogP app: -3.44

## CC(C(=O)O)c1cccc(C(=O)c2ccccc2)c1 (configuration not stated) [KETOPROFEN]
[7]
  LogP app: -5.55
[8]
  LogP app: -5.49
[3]
  logPm: -2.43

## COCCc1ccc(OCC(O)CNC(C)C)cc1 (configuration not stated) [METOPROLOL]
[2]
  LogP app: -5.1 and -4.95
[3]
  logPm: -1.75
[4]; PAMPA
  Papp: 14.3 ×10⁻⁶ cm/s
[4]; artificial membrane
  LogP app: -4.84

## CN1C(C(=O)Nc2ccccn2)=C(O)c2ccccc2S1(=O)=O [PIROXICAM]
[1]
  logP: 1.98
[3]
  logPm: -2.08
[4]; PAMPA
  Papp: 19.2 ×10⁻⁶ cm/s
[4]; artificial membrane
  LogP app: -4.72

## O=C(O)c1ccccc1O [SALICYLIC ACID]
[3]
  logPm: -3.46
[4]; PAMPA
  LogP app: -5.31
  Papp: 4.9 ×10⁻⁶ cm/s

## C[C@]12CC[C@H]3[C@@H](CCC4=CC(=O)CC[C@@]43C)[C@@H]1CC[C@@H]2O [TESTOSTERONE]
[7]
  LogP app: -4.29
[8]
  LogP app: -4.08
[9]
  LogP app: -3.87
[2]
  LogP app: -4.95 and -4.77
[4]; PAMPA
  Papp: 136 ×10⁻⁶ cm/s
[4]; artificial membrane
  LogP app: -3.87
